{
  "source": "patent US20140128357A1",
  "about": "“METHODS OF PRODUCING AND USING BRASSINOSTEROIDS TO PROMOTE GROWTH, REPAIR AND MAINTENANCE OF SKELETAL MUSCLE AND SKIN” (Rutgers University, priority 2010, published 2014)",
  "key": {"[1]": {"assay": "Body composition and blood biochemistry, rats on normal diet, 24 d oral HB (Protocol 1)", "assay_type": "in vivo, rat", "conditions": "for Bone mineral content / Fat mass / Lean mass / change in fat mass vs control / increase in lean body mass vs control: DEXA", "experimental": "Six-week-old male Wistar rats (180-220 g, Charles River Laboratories, MA) were housed in individual chambers in a room maintained at a constant room temperature with 12 h light-dark cycle. Animals had free access to food and water. Animals were allowed to adapt to new conditions for 7 d and handling the animals was carried out daily during this time to reduce the stress of physical manipulation. Animals were randomized into groups according to bodyweight 1 d prior to dosing.\n(§1) The body weight of each animal and the total amount of food consumed (accounted for spillage) were recorded every 2 d for the duration of the experiment. At the end of the experiment, blood was collected by heart puncture after CO2 inhalation and animal body composition was assessed by DEXA dual-energy X-ray absorptiometry analysis using a Lunar Prodigy Densitometer (GE Healthcare, Waukesha, Wis.). At necropsy, tissue weights were recorded. Tissue samples were collected by snap-freezing in liquid nitrogen and stored at −80° C. for further studies. Total RNA was isolated using Trizol, its quantity and purity were determined using a NanoDrop (Nanodrop Technologies, Wilmington, Del.).\nBlood samples were taken from overnight-fasted animals by heart puncture, collected in EDTA-coated tubes, centrifuged 1,500 g for 20 min, and separated plasma was stored at −80° C. until analysis. Glucose was measured in blood samples using a Lifescan glucometer (Johnson and Johnson, New Brunswick, N.J.). […] Plasma triglycerides and total cholesterol were measured by enzymatic colorimetric assays (Wako Diagnostics, Richmond, Va.). Total testosterone in plasma samples was quantified by an ELISA assay (DRG Diagnostics, Marburg, Germany)."}, "[2]": {"test_system": "fully differentiated L6 rat skeletal myotubes", "assay": "MTT cell viability in L6 myotubes", "assay_type": "cell-based", "conditions": "up to 25 μM", "experimental": "In various aspects, cell viability is measured and the effects of doses of compound and test reagents are tested in cell lines. In some aspects, cell viability was measured by the MTT (3-(4,5-Dimethylthiazol-2-yl)-2,5-diphenyltetrazolium bromide) assay in triplicate (Mosmann et al., J. Immunol. Methods 65:55-63, 1983) and quantified spectrophotometrically at 550 nm using a microplate reader (Molecular Devices, Sunnyvale, Calif.)."}, "[3]": {"test_system": "gastrocnemius muscle mRNA (insulin signaling pathway, myogenic transcription factors)", "assay": "Gene expression in gastrocnemius muscle, insulin signaling PCR array and RT-PCR", "assay_type": "in vivo, rat", "conditions": "60 mg/kg oral 24 d", "experimental": "as §1\nPooled RNA samples obtained from frozen skeletal muscle (gastrocnemius muscle biopsies of vehicle- (Ctr) and HB-treated animals) were used in a rat insulin signaling PCR array to measure mRNA response to HB. […] However, the magnitude of the differences varied (FIG. 11A)."}, "[4]": {"test_system": "collagen and elastin in skin", "assay": "Collagen and elastin in skin of rats given oral HB (Example 16)", "assay_type": "in vivo, rat", "conditions": "20 and 60 mg/kg oral daily 24 d, written in present tense", "experimental": "To evaluate the potential anabolic effects of plant brassinosteroids on the skin of animals, 20 and 60 mg/kg body weight of HB (HB20 and HB60, respectively) are orally administered daily to healthy rats fed normal diet for 24 d.\nCollagen and elastin production are measured in the skin of animals treated with HB versus their control counterparts. Protein degradation of collagen and elastin is measured in the skin of animals treated with HB versus their control counterparts, e.g., by collagen or elastin ELISAs. The amount of collagen and elastin protein present in the skin of animals treated with HB is measured versus their control counterparts."}, "[5]": {"target": "T1, rat nuclear androgen receptor (Rattus norvegicus, UniProt P15207)", "T1 construct": "MDS Pharma Services (Taiwan), the contract laboratory that ran the assay", "T1 sequence (P15207 1-902)": "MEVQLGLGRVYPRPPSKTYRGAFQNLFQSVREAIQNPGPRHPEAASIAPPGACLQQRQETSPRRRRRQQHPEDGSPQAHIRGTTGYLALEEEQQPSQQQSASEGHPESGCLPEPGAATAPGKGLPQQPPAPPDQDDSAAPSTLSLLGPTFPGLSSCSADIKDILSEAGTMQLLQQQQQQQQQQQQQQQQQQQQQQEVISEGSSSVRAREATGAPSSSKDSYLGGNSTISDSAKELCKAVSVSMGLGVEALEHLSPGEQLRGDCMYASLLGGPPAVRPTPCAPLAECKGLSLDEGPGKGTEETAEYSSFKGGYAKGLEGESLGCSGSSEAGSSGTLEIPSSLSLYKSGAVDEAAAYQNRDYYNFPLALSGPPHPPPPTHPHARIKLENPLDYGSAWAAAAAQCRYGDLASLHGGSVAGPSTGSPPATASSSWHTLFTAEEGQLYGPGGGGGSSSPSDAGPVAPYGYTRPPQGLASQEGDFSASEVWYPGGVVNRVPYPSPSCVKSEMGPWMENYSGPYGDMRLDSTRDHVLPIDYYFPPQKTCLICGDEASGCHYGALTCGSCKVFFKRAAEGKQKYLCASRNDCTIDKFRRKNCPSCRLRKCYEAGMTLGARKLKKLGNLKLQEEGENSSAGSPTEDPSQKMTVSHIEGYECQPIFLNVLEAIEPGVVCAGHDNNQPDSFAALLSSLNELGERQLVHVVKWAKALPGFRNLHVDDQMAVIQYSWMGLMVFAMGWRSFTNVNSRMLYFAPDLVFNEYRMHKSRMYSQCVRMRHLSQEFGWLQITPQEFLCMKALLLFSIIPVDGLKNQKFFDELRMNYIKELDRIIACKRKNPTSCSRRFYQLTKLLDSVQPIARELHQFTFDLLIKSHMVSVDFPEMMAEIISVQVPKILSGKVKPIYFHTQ", "assay": "Rat androgen receptor binding, [3H]-mibolerone displacement", "conditions": "0.01 μM up to 10 μM", "experimental": "Rat androgen receptor binding assays were performed by MDS Pharma Services (Taiwan) as described elsewhere (Chang et al., J. Steroid Biochem. 27:123-131, 1987), incorporated herein by reference."}, "[6]": {"conditions": "pooled gastrocnemius RNA, PCR array"}},
  "data": [
    {"smiles": "CC[C@@H](C(C)C)[C@H](O)[C@@H](O)[C@@H](C)[C@H]1CC[C@H]2[C@@H]3COC(=O)[C@H]4C[C@H](O)[C@H](O)C[C@]4(C)[C@H]3CC[C@]12C", "note": "[Compound 1, (22S,23S,24S)-2α,3α,22,23-tetrahydroxy-24 ethyl-β-homo-7-oxo-5α-cholestane-6-one]", "values": [
      {"measurement": "Body weight", "setting": "[1]; 20 mg/kg oral daily 24 d", "result": "324.3 ± 11.5", "unit": "g"},
      {"measurement": "Body weight gain", "setting": "[1]; 20 mg/kg oral daily 24 d", "result": "126.6 ± 7.1", "unit": "g"},
      {"measurement": "Gastrocnemius muscle", "setting": "[1]; 20 mg/kg oral daily 24 d", "result": "2.07 ± 0.06", "unit": "g"},
      {"measurement": "increase in gastrocnemius muscle mass", "setting": "[1]; 20 mg/kg oral daily 24 d", "result": 15.6, "unit": "%"},
      {"measurement": "increase of total body weight gain relative to initial body weight, compared with vehicle-treated controls", "setting": "[1]; 20 mg/kg oral daily 24 d", "result": 18.3, "unit": "%"},
      {"measurement": "Bone mineral content", "setting": "[1]; 20 mg/kg oral daily 24 d", "result": "7.0 ± 0.3", "unit": "g"},
      {"measurement": "Fat mass", "setting": "[1]; 20 mg/kg oral daily 24 d", "result": "49.0 ± 4.3", "unit": "g"},
      {"measurement": "Lean mass", "setting": "[1]; 20 mg/kg oral daily 24 d", "result": "268.3 ± 9.0", "unit": "g"},
      {"measurement": "change in fat mass vs control", "setting": "[1]; 20 mg/kg oral daily 24 d", "result": "−3.9", "unit": "%"},
      {"measurement": "increase in lean body mass vs control", "setting": "[1]; 20 mg/kg oral daily 24 d", "result": 7.0, "unit": "%"},
      {"measurement": "Body weight", "setting": "[1]; 60 mg/kg oral daily 24 d", "result": "342.3 ± 4.9", "unit": "g"},
      {"measurement": "Body weight gain", "setting": "[1]; 60 mg/kg oral daily 24 d", "result": "135.7 ± 9.4", "unit": "g"},
      {"measurement": "Gastrocnemius muscle", "setting": "[1]; 60 mg/kg oral daily 24 d", "result": "2.13 ± 0.12", "unit": "g"},
      {"measurement": "increase in gastrocnemius muscle mass", "setting": "[1]; 60 mg/kg oral daily 24 d", "result": 19.0, "unit": "%"},
      {"measurement": "increase of total body weight gain relative to initial body weight, compared with vehicle-treated controls", "setting": "[1]; 60 mg/kg oral daily 24 d", "result": 26.8, "unit": "%"},
      {"measurement": "Bone mineral content", "setting": "[1]; 60 mg/kg oral daily 24 d", "result": "7.4 ± 0.1", "unit": "g"},
      {"measurement": "Fat mass", "setting": "[1]; 60 mg/kg oral daily 24 d", "result": "48.5 ± 3.8", "unit": "g"},
      {"measurement": "Lean mass", "setting": "[1]; 60 mg/kg oral daily 24 d", "result": "286.5 ± 4.3", "unit": "g"},
      {"measurement": "change in fat mass vs control", "setting": "[1]; 60 mg/kg oral daily 24 d", "result": "−4.9", "unit": "%"},
      {"measurement": "increase in lean body mass vs control", "setting": "[1]; 60 mg/kg oral daily 24 d", "result": 14.2, "unit": "%"},
      {"measurement": "toxicity to L6 myotubes (MTT assay and cytological observations)", "setting": "[2]", "result": "no toxicity"},
      {"measurement": "expression of EIF2B1", "setting": "[3]", "result": "No changes"},
      {"measurement": "MYF5 mRNA upregulation", "setting": "[3]; RT-PCR (FIG. 11C)", "result": 1.3, "unit": "fold"},
      {"measurement": "MYF6 mRNA upregulation", "setting": "[3]; RT-PCR (FIG. 11C)", "result": 1.3, "unit": "fold"},
      {"measurement": "MYOD1 mRNA upregulation", "setting": "[3]; RT-PCR (FIG. 11C)", "result": 2.1, "unit": "fold"},
      {"measurement": "MYOG (myogenin) mRNA upregulation", "setting": "[3]; RT-PCR (FIG. 11C)", "result": 1.7, "unit": "fold"},
      {"measurement": "ADRA1D mRNA upregulation", "setting": "[3]; [6]", "result": 6.5, "unit": "fold"},
      {"measurement": "FBP2 mRNA upregulation", "setting": "[3]; [6]", "result": 4.5, "unit": "fold"},
      {"measurement": "IGF-2 mRNA upregulation", "setting": "[3]; [6]", "result": 1.4, "unit": "fold"},
      {"measurement": "IGFBP1 mRNA upregulation", "setting": "[3]; [6]", "result": 2.5, "unit": "fold"},
      {"measurement": "SREBP-1 mRNA upregulation", "setting": "[3]; [6]", "result": 2.5, "unit": "fold"},
      {"measurement": "collagen and elastin production in skin", "setting": "[4]", "result": "increases collagen and elastin production in skin"},
      {"measurement": "binding to androgen receptor", "setting": "[5]", "result": "no significant binding"}
    ]}
  ]
}
